Data reported in PMC4319983, “PE859, a Novel Tau Aggregation Inhibitor, Reduces Aggregated Tau and Prevents Onset and Progression of Neural Dysfunction In Vivo” (PLoS ONE, 2015).

Target: T1, tau (microtubule-associated protein tau) (Homo sapiens, UniProt P10636)
T1 construct: gene MAPT
Test: ThT fluorescence assay of heparin-induced aggregation of recombinant tau; 3RMBD result confirmed by TEM and CD
Type: biochemical
From the text: ThT fluorescence assay of heparin-induced aggregation of recombinant tau; 3RMBD result confirmed by TEM and CD on tau (microtubule-associated protein tau) | PE859 inhibited the heparin-induced aggregation of both 3RMBD and full length tau in a concentration-dependent manner.

T1 sequence (P10636 150-247 isoform P10636-3): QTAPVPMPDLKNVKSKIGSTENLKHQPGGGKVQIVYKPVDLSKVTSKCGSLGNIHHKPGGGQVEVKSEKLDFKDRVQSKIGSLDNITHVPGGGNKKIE

- IC50: 810 nM
SMILES: COc1cc(OCc2ccccn2)ccc1/C=C/c1cc(/C=C/c2ccc3cc[nH]c3c2)[nH]n1 [PE859, 3-[(1E)-2-(1H-indol-6-yl)ethenyl]-5-[(1E)-2-[2-methoxy-4-(2-pyridylmethoxy)phenyl]ethenyl]-1H-pyrazole]
